Measurements from PubChem BioAssay (NCI).
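Tested at 5 concentrations; 48 h exposure; 96-well plates; endpoints linearly interpolated, else capped at highest concentration. TGI: concentration producing complete growth inhibition.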

Columns and labels:
Assay in all cases: NCI-60 cell line screen, 48 h
A498 renal = tested on: A498 renal
A549 NSCLC = tested on: A549 NSCLC
ACHN renal = tested on: ACHN renal
BT-549 breast = tested on: BT-549 breast
CAKI-1 renal = tested on: CAKI-1 renal
CCRF-CEM leukemia = tested on: CCRF-CEM leukemia
COLO 205 colon = tested on: COLO 205 colon
DU-145 prostate = tested on: DU-145 prostate
EKVX NSCLC = tested on: EKVX NSCLC
HCT-116 colon = tested on: HCT-116 colon
HCT-15 colon = tested on: HCT-15 colon
HL-60(TB) leukemia = tested on: HL-60(TB) leukemia
HOP-62 NSCLC = tested on: HOP-62 NSCLC
HOP-92 NSCLC = tested on: HOP-92 NSCLC
HS 578T breast = tested on: HS 578T breast
HT29 colon = tested on: HT29 colon
IGROV1 ovarian = tested on: IGROV1 ovarian
K-562 leukemia = tested on: K-562 leukemia
KM12 colon = tested on: KM12 colon
LOX IMVI melanoma = tested on: LOX IMVI melanoma
M14 melanoma = tested on: M14 melanoma
MALME-3M melanoma = tested on: MALME-3M melanoma
MCF7 breast = tested on: MCF7 breast
MDA-MB-231 breast = tested on: MDA-MB-231 breast
MDA-MB-435 = tested on: MDA-MB-435
MDA-N = tested on: MDA-N
MOLT-4 leukemia = tested on: MOLT-4 leukemia
NCI-H226 lung = tested on: NCI-H226 lung
NCI-H23 lung = tested on: NCI-H23 lung
NCI-H460 lung = tested on: NCI-H460 lung
NCI-H522 lung = tested on: NCI-H522 lung
NCI/ADR-RES ovarian = tested on: NCI/ADR-RES ovarian
OVCAR-3 ovarian = tested on: OVCAR-3 ovarian
OVCAR-4 ovarian = tested on: OVCAR-4 ovarian
OVCAR-5 ovarian = tested on: OVCAR-5 ovarian
OVCAR-8 ovarian = tested on: OVCAR-8 ovarian
PC-3 prostate = tested on: PC-3 prostate
RPMI-8226 leukemia = tested on: RPMI-8226 leukemia
RXF 393 renal = tested on: RXF 393 renal
SF-268 CNS = tested on: SF-268 CNS
SF-295 CNS = tested on: SF-295 CNS
SF-539 CNS = tested on: SF-539 CNS
SK-MEL-2 melanoma = tested on: SK-MEL-2 melanoma
SK-MEL-28 melanoma = tested on: SK-MEL-28 melanoma
SK-MEL-5 melanoma = tested on: SK-MEL-5 melanoma
SK-OV-3 ovarian = tested on: SK-OV-3 ovarian
SN12C renal = tested on: SN12C renal
SNB-19 CNS = tested on: SNB-19 CNS
SNB-75 CNS = tested on: SNB-75 CNS
SR leukemia = tested on: SR leukemia
SW-620 colon = tested on: SW-620 colon
T-47D breast = tested on: T-47D breast
TK-10 renal = tested on: TK-10 renal
U251 CNS = tested on: U251 CNS
UACC-257 melanoma = tested on: UACC-257 melanoma
UACC-62 melanoma = tested on: UACC-62 melanoma
UO-31 renal = tested on: UO-31 renal
786-0 renal = tested on: 786-0 renal

With `COc1cc(/C=N\O)cc(/C=N/O)c1O` as the compound, how does the TGI (A498 renal) read?
The TGI was > 100 µM.

What about the TGI (A549 NSCLC) of the same compound?
The TGI was > 100 µM.

What about the TGI (ACHN renal) of the same compound?
The TGI was 81.9 µM.

And the TGI (BT-549 breast)?
The TGI was > 100 µM.

And the TGI (CAKI-1 renal)?
Its TGI is > 100 µM.

And the TGI (CCRF-CEM leukemia)?
The TGI was 25.1 µM.

What about the TGI (COLO 205 colon) of the same compound?
Its TGI is 49.2 µM.

What about the TGI (DU-145 prostate) of the same compound?
Its TGI is > 100 µM.

And the TGI (EKVX NSCLC)?
The TGI was > 100 µM.

And the TGI (HCT-116 colon)?
Its TGI is > 100 µM.

What about the TGI (HCT-15 colon) of the same compound?
The TGI was > 100 µM.

What about the TGI (HL-60(TB) leukemia) of the same compound?
Its TGI is > 100 µM.

What about the TGI (HOP-62 NSCLC) of the same compound?
Its TGI is > 100 µM.

And the TGI (HOP-92 NSCLC)?
Its TGI is 79.5 µM.

What about the TGI (HS 578T breast) of the same compound?
The TGI was 51.4 µM.

What about the TGI (HT29 colon) of the same compound?
Its TGI is > 100 µM.

And the TGI (IGROV1 ovarian)?
Its TGI is > 100 µM.

And the TGI (K-562 leukemia)?
The TGI was > 100 µM.

And the TGI (KM12 colon)?
Its TGI is > 100 µM.

And the TGI (LOX IMVI melanoma)?
The TGI was > 100 µM.

And the TGI (M14 melanoma)?
Its TGI is 54.7 µM.

What about the TGI (MALME-3M melanoma) of the same compound?
The TGI was 97.6 µM.

And the TGI (MCF7 breast)?
Its TGI is > 100 µM.

What about the TGI (MDA-MB-231 breast) of the same compound?
The TGI was > 100 µM.

What about the TGI (MDA-MB-435) of the same compound?
Its TGI is > 100 µM.

What about the TGI (MDA-N) of the same compound?
Its TGI is > 100 µM.

And the TGI (MOLT-4 leukemia)?
Its TGI is 77 µM.

And the TGI (NCI-H226 lung)?
The TGI was 63.8 µM.

And the TGI (NCI-H23 lung)?
The TGI was > 100 µM.

What about the TGI (NCI-H460 lung) of the same compound?
Its TGI is > 100 µM.

And the TGI (NCI-H522 lung)?
The TGI was > 100 µM.

And the TGI (NCI/ADR-RES ovarian)?
Its TGI is > 100 µM.

And the TGI (OVCAR-3 ovarian)?
Its TGI is > 100 µM.

And the TGI (OVCAR-4 ovarian)?
Its TGI is > 100 µM.

What about the TGI (OVCAR-5 ovarian) of the same compound?
The TGI was > 100 µM.

What about the TGI (OVCAR-8 ovarian) of the same compound?
Its TGI is > 100 µM.

And the TGI (PC-3 prostate)?
The TGI was > 100 µM.

And the TGI (RPMI-8226 leukemia)?
Its TGI is 32.4 µM.

What about the TGI (RXF 393 renal) of the same compound?
Its TGI is 60.3 µM.

What about the TGI (SF-268 CNS) of the same compound?
The TGI was > 100 µM.

What about the TGI (SF-295 CNS) of the same compound?
The TGI was 76.5 µM.

And the TGI (SF-539 CNS)?
Its TGI is 66.3 µM.

And the TGI (SK-MEL-2 melanoma)?
Its TGI is 62.7 µM.

And the TGI (SK-MEL-28 melanoma)?
The TGI was > 100 µM.

And the TGI (SK-MEL-5 melanoma)?
Its TGI is > 100 µM.

And the TGI (SK-OV-3 ovarian)?
Its TGI is 90.9 µM.

What about the TGI (SN12C renal) of the same compound?
The TGI was > 100 µM.

What about the TGI (SNB-19 CNS) of the same compound?
Its TGI is > 100 µM.

And the TGI (SNB-75 CNS)?
Its TGI is > 100 µM.

And the TGI (SR leukemia)?
Its TGI is 90.2 µM.

And the TGI (SW-620 colon)?
Its TGI is > 100 µM.

What about the TGI (T-47D breast) of the same compound?
Its TGI is > 100 µM.

And the TGI (TK-10 renal)?
Its TGI is > 100 µM.

And the TGI (U251 CNS)?
Its TGI is > 100 µM.

And the TGI (UACC-257 melanoma)?
Its TGI is > 100 µM.

What about the TGI (UACC-62 melanoma) of the same compound?
The TGI was > 100 µM.

What about the TGI (UO-31 renal) of the same compound?
The TGI was > 100 µM.

What does the source list for `NC1(C(=O)O)CCCC1C(=O)O` (centres undefined)?
TGI (786-0 renal): > 100 µM; TGI (A498 renal): > 100 µM; TGI (A549 NSCLC): > 100 µM; TGI (ACHN renal): > 100 µM; TGI (BT-549 breast): > 100 µM; TGI (CAKI-1 renal): > 100 µM; TGI (CCRF-CEM leukemia): > 100 µM; TGI (COLO 205 colon): > 100 µM; TGI (DU-145 prostate): > 100 µM; TGI (EKVX NSCLC): > 100 µM; TGI (HCT-116 colon): > 100 µM; TGI (HCT-15 colon): > 100 µM; TGI (HL-60(TB) leukemia): > 100 µM; TGI (HOP-62 NSCLC): > 100 µM; TGI (HOP-92 NSCLC): > 100 µM; TGI (HS 578T breast): > 100 µM; TGI (HT29 colon): > 100 µM; TGI (IGROV1 ovarian): > 100 µM; TGI (K-562 leukemia): > 100 µM; TGI (KM12 colon): > 100 µM; TGI (LOX IMVI melanoma): > 100 µM; TGI (M14 melanoma): > 100 µM; TGI (MALME-3M melanoma): > 100 µM; TGI (MCF7 breast): > 100 µM; TGI (MDA-MB-231 breast): > 100 µM; TGI (MDA-MB-435): > 100 µM; TGI (MDA-N): > 100 µM; TGI (MOLT-4 leukemia): > 100 µM; TGI (NCI-H23 lung): > 100 µM; TGI (NCI-H460 lung): > 100 µM; TGI (NCI-H522 lung): > 100 µM; TGI (NCI/ADR-RES ovarian): > 100 µM; TGI (OVCAR-3 ovarian): > 100 µM; TGI (OVCAR-4 ovarian): > 100 µM; TGI (OVCAR-5 ovarian): > 100 µM; TGI (OVCAR-8 ovarian): > 100 µM; TGI (PC-3 prostate): > 100 µM; TGI (RPMI-8226 leukemia): > 100 µM; TGI (RXF 393 renal): > 100 µM; TGI (SF-268 CNS): > 100 µM; TGI (SF-295 CNS): > 100 µM; TGI (SF-539 CNS): > 100 µM; TGI (SK-MEL-2 melanoma): > 100 µM; TGI (SK-MEL-28 melanoma): > 100 µM; TGI (SK-MEL-5 melanoma): > 100 µM; TGI (SK-OV-3 ovarian): > 100 µM; TGI (SN12C renal): > 100 µM; TGI (SNB-19 CNS): > 100 µM; TGI (SNB-75 CNS): > 100 µM; TGI (SR leukemia): > 100 µM; TGI (SW-620 colon): > 100 µM; TGI (T-47D breast): > 100 µM; TGI (TK-10 renal): > 100 µM; TGI (U251 CNS): > 100 µM; TGI (UACC-257 melanoma): > 100 µM; TGI (UACC-62 melanoma): > 100 µM; TGI (UO-31 renal): > 100 µM
